Measured values reported in patent US10399931B2, “Octahydroanthracene compound, preparation method and application thereof” (SHANDONG XINHUA PHARMACEUTICAL CO., LTD., priority 2016, dated 2019).
Like-named read-outs stand apart in the source and are kept apart here.

Legend:
[1] = system: Human leukemia HL60 cells; assay: MTT assay, proliferation of human leukemia HL60 cells; type: cell-based; conditions: Homo sapiens, HL-60, 48 h, read-out: Inhibitive rate (%) against HL60 cells
Protocol: (§1) The survival rate of cells was determined by MTT assay, which is based on the metabolic reduction of 3-(4,5-dimethyl-2thiahiazoyl)-3,5-di-phenyl-tetrazolium bromide (MTT) by viable cells. MTT is a yellow compound, a dye that accepts hydrogen ion, which can act on the respiratory chain in the mitochondria of viable cells. Under the action of succinate dehydrogenase and cytochrome C, the tetrazolium ring was cleaved to form blue Formazan crystals, and the amount of Formazan crystals generated was only proportional to the number of the viable cells. The enzymes disappeared in dead cells, so Formazan crystals could not be dissolved in MTT solution containing 20% sodium dodecyl sulfate (pH 4.7).
(§2) The cells in the logarithmic growth phase were selected and adjusted to an appropriate cell density, seeded in a 96-well plate, 100 μl/well, and cultured in a 37° C., 5% CO2 incubator. The cells were allowed to adhere overnight, then the culture medium was replaced and the drug was added to cultivate for 48 h. A blank control group, a drug administration group and a positive control group were set, with four repeats in each group.
(§3) After 48 h of drug treatment, the cells were incubated with 0.25 mg/ml MTT at 37° C. for 3-4 h, and 100 μl of dimethyl sulfoxide (DMSO) was added to each well after aspirating the culture solution.

[2] = system: Human cutaneous T-cell lymphoma Hut102 cells; assay: MTT assay, proliferation of human cutaneous T-cell lymphoma Hut102 cells; type: cell-based
Protocol: as §1, §2, §3

[3] = HuT-102, 10 μM, Mean ± SE, read-out: Inhibitive rate (%) against Hut102 cells

CC1(C)CCC(C)(C)c2c1cc1c(c2NC(=O)c2ccc(C(=O)NO)cc2)C(C)(C)CCC1(C)C [OAA3, N-hydroxy-4-[(1,1,4,4,5,5,8,8-octamethyl-1,2,3,4,5,6,7,8-octahydro-9-anthryl)carbamoyl] benzamide]
inhibition at 10 µM ([1]; 10 μM, 48 h, Mean ± SE): 4.79 ± 6.65%
inhibition at 10 µM [2, 3]: 11.3 ± 0.46%

COC(=O)c1ccc(C(=O)Nc2c3c(cc4c2C(C)(C)CCC4(C)C)C(C)(C)CCC3(C)C)cc1 [OAA-1, 4-[(1,1,4,4,5,5,8,8-octamethyl-1,2,3,4,5,6,7,8-octahydro-9-anthryl)carbamoyl] methyl Benzoate]
inhibition at 10 µM ([1]; 10 μM, 48 h, Mean ± SE): 8.27 ± 1.57%
inhibition at 10 µM [2, 3]: 7.11 ± 1.06%

CC1(C)CCC(C)(C)c2c1cc1c(c2NC(=O)c2ccc(C(=O)O)cc2)C(C)(C)CCC1(C)C [OAA-2, 4-[(1,1,4,4,5,5,8,8-octamethyl-1,2,3,4,5,6,7,8-octahydro-9-anthryl)carbamoyl] benzoic Acid]
inhibition at 10 µM ([1]; 10 μM, 48 h, Mean ± SE): 3.06 ± 2.23%
inhibition at 10 µM [2, 3]: -3.63 ± 1.07%

CC1(C)CCC(C)(C)c2c1cc1c(c2NC(=O)c2ccc(C(=O)Nc3ccccc3N)cc2)C(C)(C)CCC1(C)C [OAA-4, N-(2-aminophenyl)-4-[(1,1,4,4,5,5,8,8-octamethyl-1,2,3,4,5,6,7,8-octahydro-9-anthryl)carbamoyl] benzamide]
inhibition at 10 µM ([1]; 10 μM, 48 h, Mean ± SE): 12.5 ± 1.32%
inhibition at 10 µM [2, 3]: 30.3 ± 0.7%

CCN(CC)CCNC(=O)c1ccc(C(=O)Nc2c3c(cc4c2C(C)(C)CCC4(C)C)C(C)(C)CCC3(C)C)cc1 [OAA-5, N-[2-(N,N-diethylamino)]ethyl-4-[(1,1,4,4,5,5,8,8-octamethyl-1,2,3,4,5,6,7,8-octahydro-9-anthryl)carbamoyl] benzamide]
inhibition at 10 µM ([1]; 10 μM, 48 h, Mean ± SE): 16.6 ± 1.43%
inhibition at 10 µM [2, 3]: 27.7 ± 2.38%

CN(C)CCNC(=O)c1ccc(C(=O)Nc2c3c(cc4c2C(C)(C)CCC4(C)C)C(C)(C)CCC3(C)C)cc1 [OAA-7, N-[2-(N,N-dimethylamino)]ethyl-4-[(1,1,4,4,5,5,8,8-octamethyl-1,2,3,4,5,6,7,8-octahydro-9-anthryl)carbamoyl] benzamide]
inhibition at 10 µM ([1]; 10 μM, 48 h, Mean ± SE): 10.8 ± 0.69%
inhibition at 10 µM [2, 3]: 8.34 ± 4.37%

CC1(C)CCC(C)(C)c2c1cc1c(c2NC(=O)c2ccc(C(=O)Nc3ccccc3O)cc2)C(C)(C)CCC1(C)C [OAA-12, N-(2-hydroxyphenyl)-4[(1,1,4,4,5,5,8,8-octamethyl-1,2,3,4,5,6,7,8-octahydro-9-anthryl)carbamoyl] benzamide]
inhibition at 10 µM [2, 3]: 25.1 ± 0.65%

CC1(C)CCC(C)(C)c2c1cc1c(c2NC(=O)c2ccc(N)cc2)C(C)(C)CCC1(C)C [OAB-1, 4[(1,1,4,4,5,5,8,8-octamethyl-1,2,3,4,5,6,7,8-octahydro-9-anthryl)carbamoyl] aniline]
inhibition at 10 µM ([1]; 10 μM, 48 h, Mean ± SE): 5.95 ± 2.98%
inhibition at 10 µM [2, 3]: 5.43 ± 2.54%

CCOC(=O)Nc1ccc(C(=O)Nc2c3c(cc4c2C(C)(C)CCC4(C)C)C(C)(C)CCC3(C)C)cc1 [OAB-2, 4-[(1,1,4,4,5,5,8,8-octamethyl-1,2,3,4,5,6,7,8-octahydro-9-anthryl)carbamoyl] ethyl phenylcarbamate]
inhibition at 10 µM [1]: 4.51 ± 1.8%
inhibition at 10 µM ([2]; HuT-102, read-out: Inhibitive rate (%) against Hut102 cells): 6.58 ± 1.51%

CC1(C)CCC(C)(C)c2c1cc1c(c2NC(=O)c2ccc(NC(=O)N3CCOCC3)cc2)C(C)(C)CCC1(C)C [OAB-3, 4-[(1,1,4,4,5,5,8,8-octamethyl-1,2,3,4,5,6,7,8-octahydro-9-anthryl)carbamoyl] phenylcarbamoyl-1-morpholine]
inhibition at 10 µM ([1]; 10 μM, 48 h, Mean ± SE): 1.71 ± 5.44%
inhibition at 10 µM [2, 3]: -0.89 ± 3.47%

CC1(C)CCC(C)(C)c2c1cc1c(c2NC(=O)c2ccc(NC(=O)Nc3ccccc3N)cc2)C(C)(C)CCC1(C)C [OAB-4, 1-(2-aminophenyl)-3-{4-[(1,1,4,4,5,5,8,8-octamethyl-1,2,3,4,5,6,7,8-octahydro-9-anthryl)carbamoyl]phenyl} urea]
inhibition at 10 µM ([1]; 10 μM, 48 h, Mean ± SE): 15.4 ± 1.16%
inhibition at 10 µM [2, 3]: 34 ± 0.93%

CC1(C)CCC(C)(C)c2c1cc1c(c2NC(=O)c2ccc(N(S(C)(=O)=O)S(C)(=O)=O)cc2)C(C)(C)CCC1(C)C [OAB-5, N,N-dimethylsulfonyl-4-[(1,1,4,4,5,5,8,8-octamethyl-1,2,3,4,5,6,7,8-octahydro-9-anthryl)carbamoyl] aniline]
inhibition at 10 µM ([1]; 10 μM, 48 h, Mean ± SE): 42.3 ± 1.05%
inhibition at 10 µM [2, 3]: 29.1 ± 1.39%
